Series [1] deals with primary monocytes from human peripheral blood. Kind of series: MTT assay, cytotoxic activity. The series is classed as cell-based. Particulars: incubation 24 or 48 hours. On the procedure:
(§1) The cytotoxic activity of gulmirecin A (3) and gulmirecin B (4) against human cells was evaluated in the well-established MTT assay using primary monocytes from human peripheral blood as well as transformed lung epithelial cell A-549 cell and leukemic Mono Mac 6 cells. Furthermore, 3 and 4 were tested against K-562, HUVEC, and HeLa cells.
Human primary monocytes were isolated from leukocyte concentrates, obtained from the Institute of Transfusion Medicine at the University Hospital Jena, Germany. The concentrates were prepared from the blood of healthy adult human donors who had not taken any anti-inflammatory medication for the 10 days prior to blood donation, as described. In brief, freshly withdrawn peripheral blood was pretreated with citrate-phosphate-dextrose solution as anticoagulant and processed with the 2C+ protocol of the Atreus Whole Blood Processing System (Terum BCT). Peripheral blood mononuclear cells (PBMC) were isolated by dextran sedimentation and centrifugation on LSM 1077 lymphocyte separation medium (PAA Laboratories). For isolation of monocytes, the PBMC were washed twice with ice-cold phosphate buffered saline (PBS) and plated (density 2×10^7 cells/ml) in culture flasks (Greiner Bio-One) containing PBMC medium (RPMI 1640 medium supplemented with 100 U/ml penicillin, 100 μg/ml streptomycin and 2 mM L-glutamine) for 1.5 hours at 37° C., 5% CO2. Non-adherent cells were removed; adherent monocytes were scraped, washed with ice-cold PBS and resuspended in ice-cold PBS with a purity of >85%, defined by forward- and side-light scatter properties and detection of the CD14 surface molecule by flow cytometry (BD FACS Calibur). […]
Cells (3×10^5 Mono Mac 6, 1×10^5 A-549 cells, or 2×10^6 monocytes per well) were seeded in a 96-well plate in the respective medium (100 μl/well). […] Absorbance of each well was measured at 570 nm in a Multiskan™ microplate spectrophotometer (Thermo Scientific).

Series [2] has as its system leukemic Mono Mac 6 cells. Kind of series: MTT assay, cytotoxic activity. It is filed as cell-based, human. As to conditions: incubation 24 or 48 hours. Here is the method:
as §1
The human monocytic cell line Mono Mac 6 was cultured in RPMI 1640 medium supplemented with FCS (10%, v/v), penicillin (100 U/ml), streptomycin (100 μg/ml), insulin (10 μg/ml), oxaloacetic acid (1 mM), sodium pyruvate (1 mM), and 1× non-essential amino acids at 37° C. and 5% CO2. A-549 cells (DSM ACC-107) were cultured in DMEM high glucose (4.5 g/l) medium supplemented with FCS (10% v/v), penicillin (100 U/ml) and streptomycin (100 μg/ml) at 37° C. in a 5% CO2 incubator. K-562 (DSM ACC 10) and HeLa cells (DSM ACC 57) were grown in RPMI 1640, whereas cells of HUVEC (ATCC CRL-1730) were cultured in DMEM medium. The respective media were supplemented with ultraglutamine 1 (10 ml/l), gentamicin sulfate (500 μl/l), and FCS (10% v/v).
Cells (3×10^5 Mono Mac 6, 1×10^5 A-549 cells, or 2×10^6 monocytes per well) were seeded in a 96-well plate in the respective medium (100 μl/well). Monocytes were allowed to adhere for 1.5 hours (37° C., 5% CO2) prior to treatment. […] Then, 20 μl of thiazolyl blue tetrazolium bromide (MTT, 5 mg/ml PBS) were added, and the incubation was continued at 37° C., 5% CO2 until blue staining of the vehicle control. Formazan formation was stopped by adding 100 μl of lysis buffer (SDS, 10%, w/v in 20 mM HCl) and samples were shaken overnight. Absorbance of each well was measured at 570 nm in a Multiskan™ microplate spectrophotometer (Thermo Scientific).
On the technique in general: Tetrazolium dyes change colour on reduction, which living cells bring about.

Series [3] has as its system HCT-116 colon carcinoma cells (ACC-581). Kind of series: Cytotoxicity (MTT) assay, antiproliferative activity. It is filed as cell-based. Particulars: Homo sapiens, 120 h, HCT-116, 5 d incubation. Here is the method: (§2) Half maximal inhibitory concentrations (IC50) in μg/ml of disciformycin A (1) and disciformycin B (2) for inhibiting the proliferative activity of human HCT-116 colon carcinoma cells, mouse fibroblast cells L929, and Chinese hamster ovary CHO-K1 cells were determined. Cells were seeded at 6×10^3 cells per well of 96-well plates (Corning CellBind®) in complete medium (180 μl) and directly treated with disciformycin dissolved in DMSO in serial dilution. The compound was tested in duplicate, as well as the internal solvent control. After 5 d incubation, 5 mg/ml MTT in PBS (20 μL) was added per well and it was further incubated for 2 h at 37° C. The medium was then discarded and cells were washed with PBS (100 μl) before adding 2-propanol/10N HCl (250:1, v/v; 100 μl) in order to dissolve formazan granules. The absorbance at 570 nm was measured using a microplate reader (EL808, Bio-Tek Instruments Inc.). The amount of formazan, i.e. relative absorption, is thereby proportional to the number of actively proliferating cells.

Series [4] concerns Mouse fibroblast cells L929 (ACC-2). The series is described as above. As to conditions: 120 h, L929, 5 d incubation. The series is classed as cell-based. On the procedure:
as §2

Series [5] relates to Chinese hamster ovary CHO-K1 cells (ACC-110). Described as above. It is filed as cell-based. As to conditions: Cricetulus griseus, 120 h, CHO-K1, 5 d incubation. On the procedure: as §2
In series [6] the test system is S. aureus Newman in PMA-differentiated human THP-1 cell line (macrophages). The series can be described thus: Intra-macrophage activity. The series is classed as cell-based. From the text: The PMA-differentiated human THP-1 cell line (macrophages) was used as cellular host for infection with S. aureus Newman at an MOI (multiplicity of infection) of 10. […] Intracellular bacteria were recovered and serial dilutions were streaked out on CASO-Agar for cfu counting. The reference drug rifampicin reduced the number of intracellular bacteria by ca. 4 logs (at 8×MIC).

The structures appear in SMILES notation. In brackets after ≈: the same amount, converted by molar mass.

As for `C/C=C(/C)[C@H]1C/C=C(\C)[C@@H](O[C@H]2O[C@H](CO)[C@@H](O)[C@@H]2O)[C@H](O)C(=O)CC[C@H](C)C(=O)O1` [Compound 4, gulmirecin B], the “cell viability / cytotoxicity (MTT)” value in series [1] and in series [2] was “no reduction in cell viability at the concentrations required for antibacterial activity” each time.
Take `C/C=C(/C)[C@H]1C/C=C(\C)[C@@H](O[C@H]2O[C@H](CO)[C@@H](O)[C@@H]2O)[C@H](OC(=O)CC(C)C)C(=O)C/C=C(/C)C(=O)O1` [Compound 1, disciformycin A]: the IC50 in series [3] was 13 µg/mL (≈ 24.8 µM); in series [4] it was 29 µg/mL (≈ 55.3 µM); in series [5], 16.6 µg/mL (≈ 31.6 µM). For the same molecule, the “reduction of the number of intracellular bacteria” value in series [6] (18 h, MOI 10, cfu counting, tested at 1×, 4× and 8×MIC) came out at 3 logs. Also, in series [6] (18 h treatment of infected macrophages), the “cytotoxicity towards THP-1 host cells” value was “without causing any apparent cytotoxicity”.
Regarding `C/C=C(/C)[C@H]1C/C=C(\C)[C@@H](O[C@H]2O[C@H](CO)[C@@H](O)[C@@H]2O)[C@H](OC(=O)CC(C)C)C(=O)C[C@@H](O)[C@H](C)C(=O)O1` [Compound 3, gulmirecin A], the “cell viability / cytotoxicity (MTT)” value in series [1] and in series [2] was “no reduction in cell viability at the concentrations required for antibacterial activity” each time.

As a reminder, the IC50 is the concentration that gives 50% inhibition. Low values mean greater potency, high ones weaker potency.

For the origin of these results see patent US20200231562A1, “NOVEL MACROLIDE ANTIBIOTICS” (HELMHOLTZ-ZENTRUM FÜR INFEKTIONSFORSCHUNG GMBH, priority 2014, published 2020).
